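Growth conditions: 96-well plates. Treatment: test compound, 48 hours, 5 concentrations. Analysis: linear interpolation between bracketing concentrations; unreached endpoints set to highest concentration. GI50 = concentration required for 50% inhibition of growth.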 Activity calls are given as the source filed them. Cut-off read from the data, not from the text of the source: active = GI50 up to about 1.1 µM and inactive = higher.
Columns and labels:
Assay in all cases: growth of human tumour cells (NCI), 48 h
[1] = test system: A498
[2] = test system: A549
[3] = test system: BT-549
[4] = test system: CAKI-1
[5] = test system: COLO 205
[6] = test system: DU-145
[7] = test system: HCC 2998
[8] = test system: HCT-15
[9] = test system: HL-60
[10] = test system: MDA-MB-231
[11] = test system: MDA-MB-435
[12] = test system: MDA-N
[13] = test system: MOLT-4
[14] = test system: OVCAR-4
[15] = test system: OVCAR-8
[16] = test system: SF-268
[17] = test system: SK-MEL-5
[18] = test system: SK-OV-3
[19] = test system: SR
[20] = test system: SW-620

SMILES | GI50 [1] | GI50 [2] | GI50 [3] | GI50 [4] | GI50 [5] | GI50 [6] | GI50 [7] | GI50 [8] [µM] | GI50 [9] | GI50 [10] | GI50 [11] | GI50 [12] | GI50 [13] | GI50 [14] | GI50 [15] | GI50 [16] | GI50 [17] | GI50 [18] | GI50 [19] | GI50 [20]
C/C=C/COc1cc(NC(=S)c2ccoc2C)ccc1OC | 49.3 µM (inactive) | > 100 µM (inactive) | > 100 µM (inactive) | 25.6 µM (inactive) | > 100 µM (inactive) | 71.1 µM (inactive) | > 100 µM (inactive) | > 100 | 60.3 µM (inactive) | 29.5 µM (inactive) | > 100 µM (inactive) | > 100 µM (inactive) | > 100 µM (inactive) | 23 µM (inactive) | 57.9 µM (inactive) | 44.3 µM (inactive) | 48.9 µM (inactive) | 61.1 µM (inactive) | > 100 µM (inactive) | > 100 µM (inactive)
Cc1cc2[nH]c(Cl)c(/C=C3\C(=O)Nc4ccccc43)c2cc1O | 4.05 µM (inactive) | 5.08 µM (inactive) | 6.53 µM (inactive) | 5.25 µM (inactive) | 13.8 µM (inactive) | 2.86 µM (inactive) | 4.2 µM (inactive) | 1.66 | 1.14 µM (inactive) | 3.09 µM (inactive) | 0.29 µM (active) | 0.379 µM (active) | 1.46 µM (inactive) | 7.52 µM (inactive) | 3.75 µM (inactive) | 4.69 µM (inactive) | 1.2 µM (inactive) | 4.83 µM (inactive) | 0.228 µM (active) | 1.81 µM (inactive)
COc1cc2cc(C(=O)N3CC(COS(C)(=O)=O)c4ccc(NC(=O)OCc5ccccc5)cc43)[nH]c2c(OC)c1OC (stereo not given) | 43.3 µM (inactive) | > 100 µM (inactive) | > 100 µM (inactive) | > 100 µM (inactive) | > 100 µM (inactive) | > 100 µM (inactive) | 84.3 µM (inactive) | > 100 | > 100 µM (inactive) | > 100 µM (inactive) | > 100 µM (inactive) | > 100 µM (inactive) | 28.3 µM (inactive) | > 100 µM (inactive) | > 100 µM (inactive) | > 100 µM (inactive) | 26.5 µM (inactive) | > 100 µM (inactive) | 3.24 µM (inactive) | > 100 µM (inactive)
N=C(/C=C/c1ccc(-c2cn3cc(/C=C/C(=N)N4CCCC4)ccc3n2)cc1)N1CCCC1 | > 100 µM (inactive) | 61.9 µM (inactive) | > 100 µM (inactive) | > 100 µM (inactive) | > 100 µM (inactive) | 50 µM (inactive) | > 100 µM (inactive) | > 100 | > 100 µM (inactive) | > 100 µM (inactive) | > 100 µM (inactive) | > 100 µM (inactive) | > 100 µM (inactive) | > 100 µM (inactive) | 79.1 µM (inactive) | > 100 µM (inactive) | > 100 µM (inactive) | > 100 µM (inactive) | > 100 µM (inactive) | > 100 µM (inactive)
Nc1nc(NCC2(CO)CCC2)cc(=O)[nH]1 | > 100 µM (inactive) | > 100 µM (inactive) | > 100 µM (inactive) | > 100 µM (inactive) | > 100 µM (inactive) | > 100 µM (inactive) | > 100 µM (inactive) | > 100 | > 100 µM (inactive) | > 100 µM (inactive) | > 100 µM (inactive) | > 100 µM (inactive) | > 100 µM (inactive) | > 100 µM (inactive) | > 100 µM (inactive) | > 100 µM (inactive) | > 100 µM (inactive) | > 100 µM (inactive) | > 100 µM (inactive) | > 100 µM (inactive)
C/C=C1/CC(C)C(C)(O)C(=O)OCC2C(O)CN3CCC(OC1=O)C23 (stereo not given) | > 100 µM (inactive) | > 100 µM (inactive) | > 100 µM (inactive) | > 100 µM (inactive) | > 100 µM (inactive) | > 100 µM (inactive) | > 100 µM (inactive) | > 100 | > 100 µM (inactive) | > 100 µM (inactive) | > 100 µM (inactive) | > 100 µM (inactive) | > 100 µM (inactive) | > 100 µM (inactive) | > 100 µM (inactive) | > 100 µM (inactive) | > 100 µM (inactive) | > 100 µM (inactive) | > 100 µM (inactive) | > 100 µM (inactive)
CC1CCCCCC(=O)c2c(O)cc(O)cc2CC(=O)O1 (stereo not given) [CURVULARIN] | > 100 µM (inactive) | > 100 µM (inactive) | 54.1 µM (inactive) | > 100 µM (inactive) | > 100 µM (inactive) | > 100 µM (inactive) | > 100 µM (inactive) | > 100 | 54.3 µM (inactive) | > 100 µM (inactive) | > 100 µM (inactive) | > 100 µM (inactive) | 73.8 µM (inactive) | > 100 µM (inactive) | > 100 µM (inactive) | > 100 µM (inactive) | > 100 µM (inactive) | > 100 µM (inactive) | 44.5 µM (inactive) | > 100 µM (inactive)
CC#Cc1cc2c(cc1O)CC[C@@H]1[C@@H]2CC[C@]2(C)[C@@H](O)CC[C@@H]12 | 5.28 µM (inactive) | 2.01 µM (inactive) | 11.9 µM (inactive) | 0.766 µM (active) | 17.7 µM (inactive) | 3.43 µM (inactive) | 5.89 µM (inactive) | 0.34 | 0.311 µM (active) | 8.18 µM (inactive) | 0.134 µM (active) | 0.178 µM (active) | 0.621 µM (active) | 12.8 µM (inactive) | 2.09 µM (inactive) | 3.59 µM (inactive) | 0.484 µM (active) | 1.81 µM (inactive) | 0.288 µM (active) | 0.655 µM (active)
O=C1Nc2ccccc2/C1=C1/Nc2ccccc2/C1=N/OCCOCCO | 0.259 µM (active) | 1.69 µM (inactive) | 2.38 µM (inactive) | 0.201 µM (active) | 1.39 µM (inactive) | 1.39 µM (inactive) | 2.76 µM (inactive) | 0.664 | 2.11 µM (inactive) | 5.93 µM (inactive) | 3.15 µM (inactive) | 3.24 µM (inactive) | 2.96 µM (inactive) | 7.19 µM (inactive) | 3.91 µM (inactive) | 3.19 µM (inactive) | 1.57 µM (inactive) | 0.361 µM (active) | 1.68 µM (inactive) | 1.82 µM (inactive)
C[C@@H]1CCC2[C@@H](C)[C@H](O[C@H]3O[C@@H]4O[C@@]5(C)CCC6[C@H](C)CCC([C@H]3C)[C@]64OO5)O[C@@H]3O[C@@]4(C)CCC1[C@@]23OO4 (stereo not given in full) | 4.15 µM (inactive) | 0.0914 µM (active) | 0.0553 µM (active) | 0.27 µM (active) | 0.0388 µM (active) | 1.93 µM (inactive) | 0.813 µM (active) | 0.022 | 0.0243 µM (active) | 0.385 µM (active) | 0.06 µM (active) | 0.136 µM (active) | 0.0546 µM (active) | 0.27 µM (active) | 0.0929 µM (active) | 3.44 µM (inactive) | 0.09 µM (active) | 0.452 µM (active) | 0.0318 µM (active) | 0.0418 µM (active)

Reference: ChEMBL document CHEMBL1201862, “PubChem BioAssay data set” (2004)
